Literature values in US20080131532A1, “Fast asleep” (priority 2006, published 2008).

Key:
[1] = system: subjects with Alzheimer's disease; conditions: eight weeks, 50 subjects
[2] = system: patients with multi-infarct dementia or senile dementia and senile and pre-senile simple memory disorders
[3] = in vivo
rat brain = conditions: following administration
jet lag = conditions: two doses, different administration times
healthy male volunteers = conditions: 10-mg dose for 28 days, 1 hour before sleep time
healthy elderly subjects = conditions: 1 mg nightly for 4 weeks
[4] = system: primary or secondary sleep disorders; conditions: meta-analysis
women = conditions: 100 mg pill at 08.00 h
[5] = system: children with idiopathic chronic sleep-onset insomnia; conditions: 5 mg at 7 pm, 4-week treatment
women with asthma = conditions: 3 mg for 4 weeks, between groups
[6] = system: long-term users of benzodiazepine; conditions: 2 milligrams daily controlled release
[7] = system: schizophrenic outpatients with initial insomnia; conditions: 3-12 mg/night, 15 days
[8] = system: travelers crossing five or more time zones
patients with tinnitus = conditions: 3 mg per day for 4 weeks; weeks 0 to 4 and weeks 0 to 8
[9] = system: children with neurologic disorders; conditions: 5 milligrams at bedtime, six children
[10] = sleep-disturbed rats, 09:00 to 15:00

In the case of `CCOC(=O)c1ncn2c1CN(C)C(=O)c1cc(F)ccc1-2` [Flumazenil, flumazenil], the “effect on changes in delta activity induced by kava-kava extract and flunitrazepam” value (sleep-disturbed rats; sleep-disturbed rats) is listed as “no significant effect”.

For `C/C=C1\[C@H]2C=C(C)C[C@]1(N)c1ccc(=O)[nH]c1C2` [Huperzine A], the “duration of AChE inhibitory action” value (compared with tacrine, donepezil, and rivastigmine) is given as “longer duration”, the “penetration through the blood-brain barrier” value (in vivo) is given as “better penetration” and the “toxicity in animal and clinical safety tests” value (in vivo) is given as “no unexpected toxicity”. For the same compound, the oral bioavailability (in vivo, po) was “higher”, the memory deficits (phase IV clinical trials in China, elderly with benign senescent forgetfulness, Alzheimer disease, vascular dementia) was “significantly improved” and the “patients with significant improvement in memory, cognitive and behavioral functions” value [1] was 58%. For the same compound, the Dizziness ([2]; in vivo) was “experienced by a few”, the “Wechsler Memory Scale” value ([2]; injectable form versus saline control) was “significant positive effects” and the “time to reach peak blood level” value [3] was “approximately 80 minutes”. For the same compound, the “acetylcholine levels in the rat brain” value (rat brain) was “increase”, the dopamine levels (rat brain) was “increases” and the norepinephrine levels (rat brain) was “increases”.

In the case of `CC1=C[C@H]2Cc3[nH]c(=O)ccc3[C@]3(C1)NCCC[C@H]23` [Huperzine B], the “acetylcholinesterase inhibition (in words)” value (acetylcholinesterase) is given as “much less potent”.

In the case of `COc1ccc2[nH]cc(CCNC(C)=O)c2c1` [Melatonin, N-[2-(5-Methoxy-1H-indol-3-yl)ethyl]acetamide], the “effect on jet lag versus placebo” value (jet lag) is given as “no beneficial physiological effect”, the “sleep latency, criterion 10 minutes of uninterrupted sleep” value (healthy male volunteers) is given as “significant reduction” and the “California Verbal Learning Test-interference subtest scores” value (healthy elderly subjects) is given as “improved”. For the same compound, the reported morning restedness (healthy elderly subjects) was “improved”, the “sleep latency after nocturnal awakening” value (healthy elderly subjects) was “improved” and the “efficacy in primary or secondary sleep disorders” value [4] was “not effective”. The “daytime cortisol levels in postmenopausal women (PMW)” value (women) was “marked increase”, the “serum cortisol levels in young women (EFW)” value (women) was “did not modify” and the Lights-off time [5] was “did not change”. The “advance of sleep offset” value [5] was 9 min, the “advance of sleep onset” value [5] was 57 min and the “decrease of sleep latency” value [5] was 17 min. For the same compound, the “total scores of the RAND-GHRI and FS-II compared to placebo” value [5] was “improved significantly more”, the total sleep time [5] was “did not change” and the “advance of melatonin onset” value ([5]; dim light melatonin onset in saliva) was 82 min. For the same compound, the “standardized response mean for the RAND-GHRI” value ([5]; placebo 0.07) was 0.69, the “standardized response mean for the FS-II” value ([5]; placebo 0.64) was 1.61 and the “asthma symptoms, use of relief medication and daily peak expiratory flow rate” value (women with asthma) was “No significant difference”. For the same compound, the “Sleep quality scores versus placebo” value [6] was “significantly higher”, the “subjects who completely discontinued benzodiazepine use” value ([6]; period one, placebo four of 16) was 14 of 18 and the daytime functioning [7] was “improved”. The duration of sleep [7] was “increased”, the freshness on awakening [7] was “heightened” and the mood [7] was “improved”. For the same compound, the “number of nighttime awakenings” value [7] was “reduced”, the “sleep-onset latency (subjective)” value [7] was “significantly reduced” and the “effect on jet lag” value [8] was “reduce or prevent jet lag”. The “mean PSQI” value (patients with tinnitus) was “significantly decreased”, the “mean THI score” value (patients with tinnitus) was “decreased significantly” and the “Quality and quantity of sleep” value [9] was “quickly increased in five of the six children”.

For `CN1C(=O)CN=C(c2ccccc2F)c2cc([N+](=O)[O-])ccc21` [flunitrazepam], the “antagonism of the effects by flumazenil” value (sleep-disturbed rats; benzodiazepine receptor antagonist flumazenil) is listed as “antagonized”, the “delta activity during non-REM sleep” value (sleep-disturbed rats; sleep-disturbed rats) is listed as “significant decrease” and the “total non-REM sleep time” value (sleep-disturbed rats; [10]) is listed as “increase”. The total waking time (sleep-disturbed rats; [10]) was “decrease” and the sleep latency (sleep-disturbed rats; sleep-disturbed rats, kava-kava extract 300 mg/kg) was “significant shortening”.
